Results on 31 compounds are retold here after patent US10106556B2, “Heterocyclic compound” (TAKEDA PHARMACEUTICAL COMPANY LIMITED, priority 2015, dated 2018).

Structures are written as SMILES.

The target of one test is T1, His-hMAGL (recombinant polyhistidine tagged human MAGL protein) (Homo sapiens, UniProt Q99685).
T1 construct: made in house; host or cells: E. coli BL21(DE3)
T1 sequence (Q99685 1-303): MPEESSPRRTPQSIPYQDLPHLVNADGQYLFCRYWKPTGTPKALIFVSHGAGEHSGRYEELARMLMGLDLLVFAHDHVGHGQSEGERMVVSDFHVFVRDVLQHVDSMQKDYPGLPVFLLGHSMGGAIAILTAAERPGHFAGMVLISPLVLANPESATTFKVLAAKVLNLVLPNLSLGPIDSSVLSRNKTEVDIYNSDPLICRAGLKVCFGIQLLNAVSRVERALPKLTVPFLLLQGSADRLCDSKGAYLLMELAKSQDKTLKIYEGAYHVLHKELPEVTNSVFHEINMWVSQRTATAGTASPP
Description: Measurement of MAGL inhibitory activity (arachidonic acid production from 2-arachidonylglycerol, RapidFire-mass spectrometry). The test is classed as biochemical. To be noted: MAGL inhibitory rate at 10 μM test compound; 60 min preincubation with His-hMAGL, 2-arachidonylglycerol substrate, 10 min reaction at room temperature. In short, it runs like this:
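Recombinant His-tagged human MAGL converted 2-arachidonylglycerol to arachidonic acid. Reactions received acetonitrile with 3 μM arachidonic acid-d8 as internal standard, and product was quantified by RapidFire SPE (C4) with negative-mode SRM mass spectrometry. Percent inhibition was calculated against compound-free and enzyme-free controls.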
Take `N#Cc1cc(C(F)(F)F)ccc1OCC1CCN(C(=O)c2cc3c(cc2F)OCC(=O)N3)CC1` [Example 68, 2-((1-((7-fluoro-3-oxo-3,4-dihydro-2H-1,4-benzoxazin-6-yl)carbonyl)piperidin-4-yl)methoxy)-5-(trifluoromethyl)benzonitrile]: the inhibition at 10 µM came out at 96%.

Turning to `Cc1nc2c(OCC3CCN(C(=O)c4cc5c(cc4F)OCC(=O)N5)CC3)cccc2s1` [Example 187, 7-fluoro-6-((4-(((2-methyl-1,3-benzothiazol-4-yl)oxy)methyl)piperidin-1-yl)carbonyl)-2H-1,4-benzoxazin-3(4H)-one], the inhibition at 10 µM came out at 98%.

Turning to `O=C1COc2ncc(C(=O)N3CCC(COc4ccccc4C(F)(F)F)CC3)cc2N1` [Example 19, 7-((4-((2-(trifluoromethyl)phenoxy)methyl)piperidin-1-yl)carbonyl)-1H-pyrido [2,3-b][1,4]oxazin-2(3H)-one], the inhibition at 10 µM came out at 100%.

In the case of `COc1cc(F)ccc1OCC1CN(C(=O)c2cc3c(cc2F)OCC(=O)N3)C1` [Example 121, 7-fluoro-6-((3-((4-fluoro-2-methoxyphenoxy)methyl)azetidin-1-yl)carbonyl)-2H-1,4-benzoxazin-3(4H)-one], the inhibition at 10 µM came to 99%.

For the compound `O=C1COc2cc(F)c(C(=O)N3CC(COc4c(Cl)cccc4Cl)C3)cc2N1` [Example 122, 6-((3-((2,6-dichlorophenoxy)methyl)azetidin-1-yl)carbonyl)-7-fluoro-2H-1,4-benzoxazin-3(4H)-one], the inhibition at 10 µM came out at 102%.

For the compound `O=C1COc2cc(F)c(C(=O)N3CC(COc4ccc(OC(F)F)cc4)C3)cc2N1` [Example 270, 6-((3-((4-(difluoromethoxy)phenoxy)methyl)azetidin-1-yl)carbonyl)-7-fluoro-2H-1,4-benzoxazin-3(4H)-one], the inhibition at 10 µM worked out at 101%.

On to `Cc1c(-c2cc(Cl)ccc2OCC2CN(C(=O)c3cc4c(cc3F)OCC(=O)N4)C2)cnn1C` [Example 266, 6-((3-((4-chloro-2-(1,5-dimethyl-1H-pyrazol-4-yl)phenoxy)methyl)azetidin-1-yl)carbonyl)-7-fluoro-2H-1,4-benzoxazin-3(4H)-one], for which the inhibition at 10 µM amounted to 99%.

`O=C1COc2cc(F)c(C(=O)N3CC(OCc4ccccc4)C3)cc2N1` [Example 327, 6-((3-(benzyloxy)azetidin-1-yl)carbonyl)-7-fluoro-2H-1,4-benzoxazin-3(4H)-one]: the inhibition at 10 µM stood at 99%.

As for `O=C1COc2cc(F)c(C(=O)N3CC(COC4CCC(F)(F)CC4)C3)cc2N1` [Example 282, 6-((3-(((4,4-difluorocyclohexyl)oxy)methyl)azetidin-1-yl)carbonyl)-7-fluoro-2H-1,4-benzoxazin-3(4H)-one], the inhibition at 10 µM was 99%.

Consider `O=C1COc2cc(F)c(C(=O)N3CC(OCc4ccc(Cl)cc4F)C3)cc2N1` [Example 349, 6-((3-((4-chloro-2-fluorobenzyl)oxy)azetidin-1-yl)carbonyl)-7-fluoro-2H-1,4-benzoxazin-3(4H)-one], for which the inhibition at 10 µM stood at 100%.

For `CC(Oc1ccc(F)cc1F)C1CCN(C(=O)c2cc3c(cc2F)OCC(=O)N3)CC1` (stereo not shown) [Example 294, 6-((4-(1-(2,4-difluorophenoxy)ethyl)piperidin-1-yl)carbonyl)-7-fluoro-2H-1,4-benzoxazin-3(4H)-one], the inhibition at 10 µM is 99%.

In the case of `O=C1COc2cc(F)c(C(=O)N3CC(COc4ccc(-c5cccnc5)cc4F)C3)cc2N1` [Example 261, 7-fluoro-6-((3-((2-fluoro-4-(pyridin-3-yl)phenoxy)methyl)azetidin-1-yl)carbonyl)-2H-1,4-benzoxazin-3(4H)-one], the inhibition at 10 µM was 98%.

Take `O=C1COc2cc(Cl)c(C(=O)N3CCC(COc4ccc(F)cc4Cl)CC3)cc2N1` [Example 86, 7-chloro-6-((4-((2-chloro-4-fluorophenoxy)methyl)piperidin-1-yl)carbonyl)-2H-1,4-benzoxazin-3(4H)-one]: the inhibition at 10 µM was determined as 98%.

As to `O=C1COc2cc(F)c(C(=O)N3CC(COc4cnc5c(c4)CCCO5)C3)cc2N1` [Example 279, 6-((3-((3,4-dihydro-2H-pyrano[2,3-b]pyridin-6-yloxy)methyl)azetidin-1-yl)carbonyl)-7-fluoro-2H-1,4-benzoxazin-3(4H)-one], the inhibition at 10 µM was found to be 101%.

For `CC1(C)Cc2cccc(OCC3CN(C(=O)c4cc5c(cc4F)OCC(=O)N5)C3)c2O1` [Example 103, 6-((3-(((2,2-dimethyl-2,3-dihydro-1-benzofuran-7-yl)oxy)methyl)azetidin-1-yl)carbonyl)-7-fluoro-2H-1,4-benzoxazin-3(4H)-one], the inhibition at 10 µM stood at 102%.

For `Cc1cc2c(cc1C(=O)N1CC(COc3ccc(F)cc3Cl)C1)NC(=O)CO2` [Example 88, 6-((3-((2-chloro-4-fluorophenoxy)methyl)azetidin-1-yl)carbonyl)-7-methyl-2H-1,4-benzoxazin-3 (4H)-one], the inhibition at 10 µM was found to be 96%.

Turning to `O=C1COc2ccc(C(=O)N3CCC(C(F)(F)c4ccc(F)cc4)CC3)cc2N1` [Example 355, 6-((4-(difluoro(4-fluorophenyl)methyl)piperidin-1-yl)carbonyl)-2H-1,4-benzoxazin-3(4H)-one], the inhibition at 10 µM turned out to be 101%.

`O=C1COc2cc(F)c(C(=O)N3CC(COc4ccc5c(c4Br)CCCC5)C3)cc2N1` [Example 286, 6-((3-(((1-bromo,-5,6,7,8-tetrahydronaphthalen-2-yl)oxy)methyl)azetidin-1-yl)carbonyl)-7-fluoro-2H-1,4-benzoxazin-3(4H)-one]: the inhibition at 10 µM was 98%.

Turning to `O=C1COc2cc(F)c(C(=O)N3CC(COc4ccccc4Cl)C3)cc2N1` [Example 113, 6-((3-((2-chlorophenoxy)methyl)azetidin-1-yl)carbonyl)-7-fluoro-2H-1,4-benzoxazin-3(4H)-one], the inhibition at 10 µM is 101%.

For `COc1cc2c(cc1C(=O)N1CC(COc3ccc(F)cc3Cl)C1)NC(=O)CO2` [Example 98, 6-((3-((2-chloro-4-fluorophenoxy)methyl)azetidin-1-yl)carbonyl)-7-methoxy-2H-1,4-benzoxazin-3(4H)-one], the inhibition at 10 µM worked out at 99%.

On to `CCc1ccc(-c2ccnc(C)c2OCC2CN(C(=O)c3cc4c(cc3F)OCC(=O)N4)C2)nc1` [Example 176, 6-((3-(((5-ethyl-2′-methyl-2,4′-bipyridin-3′-yl)oxy)methyl)azetidin-1-yl)carbonyl)-7-fluoro-2H-1,4-benzoxazin-3(4H)-one], for which the inhibition at 10 µM was found to be 95%.

Regarding `Cc1nn(C)cc1-c1ccc(OCC2CN(C(=O)c3cc4c(cc3F)OCC(=O)N4)C2)c(F)c1` [Example 249, 6-((3-((4-(1,3-dimethyl-1H-pyrazol-4-yl)-2-fluorophenoxy)methyl)azetidin-1-yl)carbonyl)-7-fluoro-2H-1,4-benzoxazin-3(4H)-one], the inhibition at 10 µM came out at 101%.

With `O=C1COc2cc(F)c(C(=O)N3CCC(COc4ccc(F)cc4Br)CC3)cc2N1` [Example 99, 6-((4-((2-bromo-4-fluorophenoxy)methyl)piperidin-1-yl)carbonyl)-7-fluoro-2H-1,4-benzoxazin-3(4H)-one], the inhibition at 10 µM came to 99%.

For `O=C1COc2ccc(C(=O)N3CC(OCc4ccccc4)C3)cc2N1` [Example 326, 6-((3-(benzyloxy)azetidin-1-yl)carbonyl)-2H-1,4-benzoxazin-3(4H)-one], the inhibition at 10 µM came out at 98%.

As to `O=C1COc2cc(F)c(C(=O)N3CCC(COc4cccc5ccnn45)CC3)cc2N1` [Example 275, 7-fluoro-6-((4-((pyrazolo[1,5-a]pyridin-7-yloxy)methyl)piperidin-1-yl)carbonyl)-2H-1,4-benzoxazin-3(4H)-one], the inhibition at 10 µM came to 99%.

`O=C1COc2cc(F)c(C(=O)N3CC(OCc4ccc(Cl)cc4)C3)cc2N1` [Example 343, 6-((3-((4-chlorobenzyl)oxy)azetidin-1-yl)carbonyl)-7-fluoro-2H-1,4-benzoxazin-3(4H)-one]: the inhibition at 10 µM was determined as 102%.

Turning to `CN1CC=C(c2cc(Cl)ccc2OCC2CN(C(=O)c3cc4c(cc3F)OCC(=O)N4)C2)CC1` [Example 212, 6-((3-((4-chloro-2-(1-methyl-1,2,3,6-tetrahydropyridin-4-yl)phenoxy)methyl)azetidin-1-yl)carbonyl)-7-fluoro-2H-1,4-benzoxazin-3(4H)-one], the inhibition at 10 µM is 94%.

As to `O=C1COc2cc(F)c(C(=O)N3CC(COc4ccc5scnc5c4)C3)cc2N1` [Example 104, 6-((3-((1,3-benzothiazol-5-yloxy)methyl)azetidin-1-yl)carbonyl)-7-fluoro-2H-1,4-benzoxazin-3(4H)-one], the inhibition at 10 µM came to 100%.

As for `O=C1COc2cc(F)c(C(=O)N3CC(COc4cccc(-c5ccccc5)c4)C3)cc2N1` [Example 110, 6-((3-((biphenyl-3-yloxy)methyl)azetidin-1-yl)carbonyl)-7-fluoro-2H-1,4-benzoxazin-3(4H)-one], the inhibition at 10 µM is 97%.

The same test, now with this note: MAGL inhibitory rate at 10 μM test compound; 60 min preincubation with His-hMAGL, 2-arachidonylglycerol substrate, 10 min reaction at room temperature; 10 µM.
For the compound `CC(Oc1cccc(F)c1F)C1CN(C(=O)c2cc3c(cc2F)OCC(=O)N3)C1` (stereo not shown) [Example 311, 6-((3-(1-(2,3-difluorophenoxy)ethyl)azetidin-1-yl)carbonyl)-7-fluoro-2H-1,4-benzoxazin-3(4H)-one], the “% inhibition (10 μM)” value was 103%.

For the compound `CC(Oc1cc(F)ccc1F)C1CN(C(=O)c2cc3c(cc2F)OCC(=O)N3)C1` (stereo not shown) [Example 320, 6-((3-(1-(2,5-difluorophenoxy)ethyl)azetidin-1-yl)carbonyl)-7-fluoro-2H-1,4-benzoxazin-3(4H)-one], the “% inhibition (10 μM)” value was 100%.
